Data on 19 compounds can be found in ChEMBL document CHEMBL3044921, “Synthesis, characterization, and SAR studies of new (1H-indol-3-yl)alkyl-3-(1H-indol-3-yl)propanamide derivatives as possible antimicrobial and antitubercular agents” (2013).

A word on the MIC: it is the least concentration at which growth counts as inhibited.

Converted amounts (≈) assume the structure as drawn.

The test has as its system Mycobacterium tuberculosis. The test can be described thus: Antitubercular activity against multidrug-resistant Mycobacterium tuberculosis assessed as growth inhibition at 0.3125 to 5 ug/mL after 7 days by resazurin reduction test. Format: functional. Particulars: 168 h. (In general: The colour change of resazurin is a common sign of viable cells or microbes.)

Take `Cn1cc(CCC(=O)NCc2c[nH]c3ccc(Cl)cc23)c2cc(Cl)ccc21`: the MIC turned out to be 6.25 µg/mL (≈ 15.6 µM).
For the compound `Cn1cc(CCCNC(=O)CCc2cn(C)c3ccc(Cl)cc23)c2cc(Cl)ccc21`, the MIC was determined as 25 µg/mL (≈ 56.5 µM).
In the case of `Cc1[nH]c2ccc(OC(F)(F)F)cc2c1CCCNC(=O)CCc1c[nH]c2ccc(Cl)cc12`, the MIC is over 50 µg/mL.
The result for `Cc1c(CCCNC(=O)CCc2c[nH]c3ccc(Cl)cc23)c2cc(OC(F)(F)F)ccc2n1C` reads over 50 µg/mL.
In the case of `Cn1cc(CCC(=O)NCCCc2c[nH]c3ccc(OC(F)(F)F)cc23)c2cc(Cl)ccc21`, the MIC is 6.25 µg/mL (≈ 13.1 µM).
The result for `Cc1c(CCCNC(=O)CCc2cn(C)c3ccc(Cl)cc23)c2cc(OC(F)(F)F)ccc2n1C` reads 1.25 µg/mL (≈ 2.47 µM).
The result for `Cn1cc(CCC(=O)NCCCc2c[nH]c3ccc(Cl)cc23)c2cc(Cl)ccc21` reads 2.5 µg/mL (≈ 5.84 µM).
The figure for `Cn1cc(CCCNC(=O)CCc2c[nH]c3ccc(Cl)cc23)c2cc(OC(F)(F)F)ccc21` is 12.5 µg/mL (≈ 26.2 µM).
As to `O=C(CCc1c[nH]c2ccc(Cl)cc12)NCc1c[nH]c2ccc(OC(F)(F)F)cc12`, the MIC is over 50 µg/mL.
With `Cc1[nH]c2ccc(OC(F)(F)F)cc2c1CNC(=O)CCc1c[nH]c2ccc(Cl)cc12`, the MIC was determined as 6.25 µg/mL (≈ 13.9 µM).
The result for `Cc1c(CNC(=O)CCc2c[nH]c3ccc(Cl)cc23)c2cc(OC(F)(F)F)ccc2n1C` reads over 50 µg/mL; that for `Cn1cc(CNC(=O)CCc2c[nH]c3ccc(Cl)cc23)c2cc(Cl)ccc21`, over 50 µg/mL; that for `Cn1cc(CCC(=O)NCc2c[nH]c3ccc(OC(F)(F)F)cc23)c2cc(Cl)ccc21`, 6.25 µg/mL (≈ 13.9 µM).
The result for `Cc1c(CNC(=O)CCc2cn(C)c3ccc(Cl)cc23)c2cc(OC(F)(F)F)ccc2n1C` reads over 50 µg/mL; that for `Cn1cc(CCC(=O)NCc2cn(C)c3ccc(Cl)cc23)c2cc(Cl)ccc21`, over 50 µg/mL; that for `O=C(CCc1c[nH]c2ccc(Cl)cc12)NCc1c[nH]c2ccc(Cl)cc12`, 6.25 µg/mL (≈ 16.2 µM).
Take `Cc1[nH]c2ccc(OC(F)(F)F)cc2c1CNC(=O)CCc1cn(C)c2ccc(Cl)cc12`: the minimum inhibitory concentration (MIC) is over 50 µg/mL.
The figure for `NNC(=O)c1ccncc1` [ISONIAZID] is 12.5 µg/mL (≈ 91.1 µM); for `CO[C@H]1/C=C/O[C@@]2(C)Oc3c(C)c(O)c4c(O)c(c(/C=N/N5CCN(C)CC5)c(O)c4c3C2=O)NC(=O)/C(C)=C\C=C\[C@H](C)[C@H](O)[C@@H](C)[C@@H](O)[C@@H](C)[C@H](OC(C)=O)[C@@H]1C` [RIFAMPIN] it is 25 µg/mL (≈ 30.4 µM).
